{"source": "paper PMC12446468", "about": "“Anti-inflammatory and cytotoxic assessment of flavonoids isolated from Viola odorata flowers with computer-guided docking study” (Scientific Reports, 2025)", "key": {"[1]": {"experiment": "MTT cytotoxicity assay, Caco-2", "format": "cell-based, human", "details": "human, Caco-2 cells (human colonic epithelial cells), 48 h", "method": "(§1) The assessment of cytotoxicity for the methanolic extract and isolated flavonoids was performed under controlled and sterile conditions within a Class II A2 Laminar flow biosafety cabinet. The carcinoma cell lines used in this study was obtained from Nawah Scientific Inc. (Cairo, Egypt). The cells were cultured in Dulbecco’s Modified Eagle’s Medium, enriched with 10% heat-inactivated fetal bovine serum, 100 U/ml penicillin, and 100 μg/ml streptomycin sulfate, maintained at […] in humidified incubators with 5% CO2. Upon reaching approximately 80% confluence, the cells were subcultured using a trypsin–EDTA solution. Harvesting occurred during the logarithmic growth phase. The methanolic extract and isolated flavonoids were dissolved in DMSO and stored at − 20 °C. For each experimental trial, the stock solutions were mixed with the culture medium to obtain the required final concentrations.\n(§2) The effectiveness of the extract was compared to that of the reference drug, Doxorubicin. The percentage of cell viability was calculated by taking the ratio of the absorbance of the plant extract to that of the control, multiplied by 100. Furthermore, the IC50 value of the plant extract was determined using Sigma Plot software version 11 (Spw.exe) (https://sigmaplot.software.informer.com/11.0/)."}, "[2]": {"test_system": "human colonic epithelial cells (Caco-2)", "experiment": "MTT cytotoxicity assay, Caco-2", "format": "cell-based", "details": "Homo sapiens, Caco-2, 48 h, read-out: IC50", "method": "as §1, §2"}, "[3]": {"experiment": "MTT cytotoxicity assay, HTC-116", "format": "cell-based, human", "details": "human, HTC-116 cells (human colorectal carcinoma), 48 h", "method": "as §1, §2"}, "[4]": {"test_system": "human colorectal carcinoma cells (HTC-116)", "experiment": "MTT cytotoxicity assay, HTC-116", "format": "cell-based", "details": "Homo sapiens, HTC-116, 48 h, read-out: IC50", "method": "as §1, §2"}}, "data": [{"compound": "COc1c(O)cc2oc(-c3ccccc3)c(OC)c(=O)c2c1O", "note": "[5,7-Dihydroxy-3,6-dimethoxyflavone]", "values": [{"measurement": "cytotoxicity at 48 h, 6.25 µg/ml", "setting": "[1]; Caco-2, 6.25 ug/ml", "value": 27.8, "unit": "%"}, {"measurement": "viability at 48 h, 6.25 µg/ml", "setting": "[1]; Caco-2, 6.25 ug/ml, read-out: % Cell viability", "value": 72.2, "unit": "%"}, {"measurement": "cytotoxicity at 48 h, 12.5 µg/ml", "setting": "[1]; Caco-2, 12.5 ug/ml", "value": 37.8, "unit": "%"}, {"measurement": "viability at 48 h, 12.5 µg/ml", "setting": "[1]; Caco-2, 12.5 ug/ml, read-out: % Cell viability", "value": 62.2, "unit": "%"}, {"measurement": "cytotoxicity at 48 h, 25 µg/ml", "setting": "[1]; Caco-2, 25 ug/ml", "value": 48.9, "unit": "%"}, {"measurement": "viability at 48 h, 25 µg/ml", "setting": "[1]; Caco-2, 25 ug/ml, read-out: % Cell viability", "value": 51.1, "unit": "%"}, {"measurement": "cytotoxicity at 48 h, 50 µg/ml", "setting": "[1]; Caco-2, 50 ug/ml", "value": 66.5, "unit": "%"}, {"measurement": "viability at 48 h, 50 µg/ml", "setting": "[1]; Caco-2, 50 ug/ml, read-out: % Cell viability", "value": 33.5, "unit": "%"}, {"measurement": "cytotoxicity at 48 h, 100 µg/ml", "setting": "[1]; Caco-2, 100 ug/ml", "value": 86.7, "unit": "%"}, {"measurement": "viability at 48 h, 100 µg/ml", "setting": "[1]; Caco-2, 100 ug/ml, read-out: % Cell viability", "value": 13.3, "unit": "%"}, {"measurement": "IC50", "setting": "[2]", "value": 32.8, "unit": "µg/mL"}, {"measurement": "cytotoxicity at 48 h, 6.25 µg/ml", "setting": "[3]; HTC-116, 6.25 ug/ml", "value": 29.8, "unit": "%"}, {"measurement": "viability at 48 h, 6.25 µg/ml", "setting": "[3]; HTC-116, 6.25 ug/ml, read-out: % Cell viability", "value": 70.2, "unit": "%"}, {"measurement": "cytotoxicity at 48 h, 12.5 µg/ml", "setting": "[3]; HTC-116, 12.5 ug/ml", "value": 39.2, "unit": "%"}, {"measurement": "viability at 48 h, 12.5 µg/ml", "setting": "[3]; HTC-116, 12.5 ug/ml, read-out: % Cell viability", "value": 60.8, "unit": "%"}, {"measurement": "cytotoxicity at 48 h, 25 µg/ml", "setting": "[3]; HTC-116, 25 ug/ml", "value": 49.9, "unit": "%"}, {"measurement": "viability at 48 h, 25 µg/ml", "setting": "[3]; HTC-116, 25 ug/ml, read-out: % Cell viability", "value": 50.1, "unit": "%"}, {"measurement": "cytotoxicity at 48 h, 50 µg/ml", "setting": "[3]; HTC-116, 50 ug/ml", "value": 64.9, "unit": "%"}, {"measurement": "viability at 48 h, 50 µg/ml", "setting": "[3]; HTC-116, 50 ug/ml, read-out: % Cell viability", "value": 35.1, "unit": "%"}, {"measurement": "cytotoxicity at 48 h, 100 µg/ml", "setting": "[3]; HTC-116, 100 ug/ml", "value": 85.9, "unit": "%"}, {"measurement": "viability at 48 h, 100 µg/ml", "setting": "[3]; HTC-116, 100 ug/ml, read-out: % Cell viability", "value": 14.1, "unit": "%"}, {"measurement": "IC50", "setting": "[4]", "value": 31.9, "unit": "µg/mL"}]}]}
